Measured values: patent publication US20240307373A1, “METHODS OF USE AND COMPOSITIONS OF BISBENZYLISOQUINOLINES FOR THE TREATMENT OF MALIGNANCIES” (priority 2023, published 2024)
Values joined by “and” are separate entries in the source; they are usually repeats but may differ in a detail not shown here. Equal values may be shown once.

How the values were obtained:
[1] = system: leukemic cells and leukemic stem cells; assay: BCR-ABL induced CML mouse model (bone marrow transplantation); type: in vivo, C57BL/6 mice
Text: The method is as follows: 20 C57BL/6 mice were used as donors for bone marrow transduction. They were primed by intravenous injection with 5-fluorouracil four days before collecting cells. Bone marrow cells were harvested from femurs and tibias. Bone marrow cells were infected with a retrovirus containing MSCV-BCR-ABL-IRES-GFP twice 60 recipient mice were lethally irradiated by two doses of 550cGy before bone marrow transplantation by intravenous injection with 500,000 cells/mouse.
In an in vivo model, the effectiveness of Tetrandrine was tested on CML stem cells. The objective of the study was to determine the survival of leukemic cells and leukemic stem cells in response to the treatment with Tetrandrine. After priming donor C57BL/6 (B6) mice with intravenous injections of 5-fluorouracil for four days, bone marrow cells were harvested from femurs and tibia, then transfected twice with retrovirus containing MSCV-BCR-ABL-IRES-GFP. Recipient mice were lethally irradiated by two doses of 550 cGy before bone marrow transplantation by intravenous injection with 5×10^5 cells/mouse. Blood from recipient mice was tested for disease induction one week after transduction by FACS analysis for GFP (FIG. 7A). […] Treatments started on day 8 after bone marrow transplantation (FIG. 7B).

calmodulin (CaM) = calmodulin (CaM) (Homo sapiens, UniProt P0DP23); settings: Ma 2013; cited from earlier work
bcr-abl transcripts = assay: qPCR assay for bcr-abl and abl transcripts in primary and secondary colonies; type: cell-based, human; settings: 10 μM, number of colonies
Protocol: After 14-16 days in culture, individual colonies were plucked from the solvent control and tetrandrine at 10 μM test condition into 75 μL of buffer RLT (Qiagen). Secondary replated colonies were collected and washed with 2 mL of 1× PBS, frozen at −80° C. and then lysed with 75 μL of buffer RLT (Qiagen). RNA was isolated using the Rneasy Micro kit according to the manufacture's instructions. Because the cell numbers in each colony were low, 20 ng of carrier RNA was included in each reaction to promote a better RNA yield. After elution, the entire isolation was subjected to a cDNA conversion using the high-capacity cDNA conversion kit (Life Technologies).
Using cDNA derived from both primary and secondary replated colonies, qPCR assay was used to determine whether colonies were positive for ber-abl transcripts. Primers and probes were designed based on the publication from Luthra, et.al. and are designed to anneal to ber-abl (target) and abl (endogenous control) cDNA. Each target was assayed in duplicated in a 20 μL reaction volume. Samples were denatured at 95° C. for 10 min and then amplified for 40 rounds of 95° C. for 15 s and 60° C. for 60 s.
To determine whether a colony was normal (bcr-abl negative and abl positive) or diseased (bcr-abl and abl positive), a TaqMan®-based qPCR test was used. In order to score the colonies positive or negative, the following scoring strategy was performed. All colonies were assayed in duplicate for each target. If a singleton reaction yielded a Ct then the reaction scored a 1. If no Ct was recorded, a score of 0 was given. From here, we used a logic test to score the colonies into four different categories: bcr-abl and abl, abl only, bcr-abl only or both negative. In order to be placed in a category, a colony must score a 1 in both reactions. However, if a colony only scored a 1 for one out of the two reactions, this colony was removed from the analysis. If a colony scored a 1 for each reaction (both bcr-abl and abl) the colony was placed into the ber-abl and abl category, signifying it as a diseased colony. Alternatively, if a colony scored a 1 in only both of the bcr-abl reactions or a 1 in only both the abl reactions, the colony was placed in the bcr-abl only or abl only category, respectively. If the colony scored a 0 for both targets (bcr-abl and abl) then the colony was placed in the both negative category.

hERG = hERG (Homo sapiens, UniProt Q12809); assay: hERG inhibition, IonWorks HT electrophysiology in CHO cells stably transfected with hERG
CAMKII gamma = biological target: T1, CAMKII gamma (Homo sapiens, UniProt Q13555); assay: CAMKII gamma kinase activity (ADP Glo); type: biochemical
T1 construct: purchased Promega V3531
Protocol: An enzymatic study was conducted to evaluate the inhibition of CAMKII gamma by ES-3000 (Tetrandrine). CAMKII gamma kinase activity was measured using […] purchased from Promega following the Promega protocol. CAMKII enzyme system purchased from Promega (V3531). ADP Glo was used for detection. Assay optimized for linearity of protein and time. Conditions for inhibitor screening 25 ng CAMKII, 20 min. incubations, inhibitor or DMSO (5%) at RT in 20 uL total volume. Inhibitors, ATP (10 or 50 uM), substrates and buffer added to tubes and reactions started with enzyme. […] Reactions terminated at 20 min. by adding ADP Glo reaction following manufactures instructions. All reactions were done in duplicate. Calculations of percent (%) inhibition determined by dividing the mean activity at each condition by the mean of the DMSO control times 100.

β-catenin = β-catenin level in K562 cell extracts by western blot; type: cell-based, human
Protocol: Levels of β-catenin and β-actin proteins in untreated and tetrandrine-treated K562 cell lines by Western blot.
Antibodies for Western Blot analysis against β-catenin and β-actin were purchased from Santa Cruz Biotechnology (Santa Cruz, CA) Protein lysates were prepared by lysing cells in RIPA buffer and immunoprecipitation.
Briefly, the method to quantitate β-catenin protein by western blot was as follows: Extracts of K562 cells (untreated and treated with various concentrations of tetrandrine) were concentrated to 0.4 ml using Centricon-3 column to yield a protein concentration of approximately 2 mg/ml. Samples were mixed with 5X Laemmli buffer and loaded on 8-16% Tris-Glycine gradient gel, then polyacrylamide gel electrophoresis (PAGE) was run at 85 volts for 100 minutes at 6° C. and proteins were transferred on PVDF membrane at 70 Volts for 85 minutes at 8° C. Membrane was blocked with 5% milk in Tris-buffered Saline containing 0.1% TW-20 (TBST). Membrane was incubated with primary antibody for 18 hours at 4° C. followed by 3 washes, 5 minutes each, with TBST and incubated with secondary antibody in TBST for 2 hours at 25° C. […] Protein bands in WB images were quantitated using Molecular Imaging software pack MIS-4.0 software and tabulated in Excel spreadsheet.

[2] = system: human CML bone marrow-derived cells; assay: Replating assay (secondary clonal growth of plucked CFU-GM colonies); type: cell-based
Protocol: Following enumeration of the erythroid and myeloid progenitors, individual CFU-GM colonies were plucked from the matrix and diluted in 20 μL of IMDM+10% FBS. The colony was dispersed in this medium by gentle pipetting. This cellular mixture was then added to a well of a 96 well plate containing 180 μL of the ColonyGel medium described above. […] Both the number of wells which supported clonal growth as well as colony number per well were recorded.

P-glycoprotein (P-gp) = P-glycoprotein (P-gp) (Homo sapiens, UniProt P08183); settings: cited from earlier work
[3] = system: human breast, colon carcinoma, and hepatoma cell lines; settings: read-out: IC50 range; cited from earlier work
HCT116 cells = settings: cited from earlier work
[4] = system: human CML bone marrow-derived cells; assay: Colony forming cell (CFC) assay on CML patient bone marrow cells; settings: colony number, methylcellulose-based medium, 14-16 days
Protocol: Clonogenic progenitors were set up using buman CML bone marrow-derived cells in the methylcellulose-based media formulation described above. Test articles were added to the medium to give final concentrations as described above. Standard cultures containing IMDM+10% FBS as well as solvent control cultures containing DMSO were also initiated. Following addition of the test compounds and cells, the tubes were vortexed to ensure equal distribution of compound and cells throughout the matrix. The cultures were set up in triplicate at 0.1×10^6 cells per culture (lot #BBM1000-E1110025705111110G4) for each control and each compound concentration. The cultures were placed in a humidified incubator (37° C., 5% CO2). Following 14-16 days in culture, the colonies were assessed and scored by trained personnel.
Human bone marrow light-density cells derived from CML patient bone marrow (Conversant Bio, Alabama), were stored in the gaseous phase of liquid nitrogen until required. On the day of the experiment, the cells were thawed rapidly, the contents of the vial were diluted in 10 mL of Iscove's Modified Dulbecco's Medium containing 10% fetal bovine serum (IMDM+10% FBS) and washed by centrifugation (approximately 1200 r.p.m. for 10 minutes, room temperature). The supernatant was discarded, and the cell pellets were resuspended in a known volume of IMDM+10% FBS. A cell count (3% glacial acetic acid) and viability assessment (trypan blue exclusion test) […] Tetrandrine (10 μM) for 14 days. After treatment, primary and secondary colonies were grown and analyzed by qPCR to determine BCR-ABL or ABL only cells.
Human erythroid (CFU-E and BFU-E) and myeloid (CFU-GM) colony enumeration were performed by trained personnel. In addition, the distribution of colony types as well as general colony and cellular morphology were analyzed. […] For statistical analysis, colony numbers in compound-treated cultures were compared to the solvent control cultures.

[5] = Tetrandrine 150 mg/kg orally 1×/day versus Imatinib 100 mg/kg 2×/day, treatment from day 8 after bone marrow transplantation

T1 sequence (Q13555 whole entry): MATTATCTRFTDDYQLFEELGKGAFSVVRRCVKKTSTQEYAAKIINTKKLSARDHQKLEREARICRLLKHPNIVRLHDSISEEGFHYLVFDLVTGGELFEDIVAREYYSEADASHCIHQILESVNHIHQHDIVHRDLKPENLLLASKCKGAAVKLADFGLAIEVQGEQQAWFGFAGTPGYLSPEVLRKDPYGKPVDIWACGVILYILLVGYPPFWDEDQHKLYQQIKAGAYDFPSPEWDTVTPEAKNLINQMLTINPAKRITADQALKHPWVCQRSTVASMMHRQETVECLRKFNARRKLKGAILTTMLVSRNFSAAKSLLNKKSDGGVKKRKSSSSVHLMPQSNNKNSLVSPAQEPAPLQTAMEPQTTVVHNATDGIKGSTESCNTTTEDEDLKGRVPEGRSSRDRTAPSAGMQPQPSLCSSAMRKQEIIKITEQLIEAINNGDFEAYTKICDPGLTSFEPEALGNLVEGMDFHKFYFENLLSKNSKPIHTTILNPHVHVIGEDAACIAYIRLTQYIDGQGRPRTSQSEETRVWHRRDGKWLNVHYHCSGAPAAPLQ
Sequence of P-glycoprotein (P-gp) (P08183 whole entry): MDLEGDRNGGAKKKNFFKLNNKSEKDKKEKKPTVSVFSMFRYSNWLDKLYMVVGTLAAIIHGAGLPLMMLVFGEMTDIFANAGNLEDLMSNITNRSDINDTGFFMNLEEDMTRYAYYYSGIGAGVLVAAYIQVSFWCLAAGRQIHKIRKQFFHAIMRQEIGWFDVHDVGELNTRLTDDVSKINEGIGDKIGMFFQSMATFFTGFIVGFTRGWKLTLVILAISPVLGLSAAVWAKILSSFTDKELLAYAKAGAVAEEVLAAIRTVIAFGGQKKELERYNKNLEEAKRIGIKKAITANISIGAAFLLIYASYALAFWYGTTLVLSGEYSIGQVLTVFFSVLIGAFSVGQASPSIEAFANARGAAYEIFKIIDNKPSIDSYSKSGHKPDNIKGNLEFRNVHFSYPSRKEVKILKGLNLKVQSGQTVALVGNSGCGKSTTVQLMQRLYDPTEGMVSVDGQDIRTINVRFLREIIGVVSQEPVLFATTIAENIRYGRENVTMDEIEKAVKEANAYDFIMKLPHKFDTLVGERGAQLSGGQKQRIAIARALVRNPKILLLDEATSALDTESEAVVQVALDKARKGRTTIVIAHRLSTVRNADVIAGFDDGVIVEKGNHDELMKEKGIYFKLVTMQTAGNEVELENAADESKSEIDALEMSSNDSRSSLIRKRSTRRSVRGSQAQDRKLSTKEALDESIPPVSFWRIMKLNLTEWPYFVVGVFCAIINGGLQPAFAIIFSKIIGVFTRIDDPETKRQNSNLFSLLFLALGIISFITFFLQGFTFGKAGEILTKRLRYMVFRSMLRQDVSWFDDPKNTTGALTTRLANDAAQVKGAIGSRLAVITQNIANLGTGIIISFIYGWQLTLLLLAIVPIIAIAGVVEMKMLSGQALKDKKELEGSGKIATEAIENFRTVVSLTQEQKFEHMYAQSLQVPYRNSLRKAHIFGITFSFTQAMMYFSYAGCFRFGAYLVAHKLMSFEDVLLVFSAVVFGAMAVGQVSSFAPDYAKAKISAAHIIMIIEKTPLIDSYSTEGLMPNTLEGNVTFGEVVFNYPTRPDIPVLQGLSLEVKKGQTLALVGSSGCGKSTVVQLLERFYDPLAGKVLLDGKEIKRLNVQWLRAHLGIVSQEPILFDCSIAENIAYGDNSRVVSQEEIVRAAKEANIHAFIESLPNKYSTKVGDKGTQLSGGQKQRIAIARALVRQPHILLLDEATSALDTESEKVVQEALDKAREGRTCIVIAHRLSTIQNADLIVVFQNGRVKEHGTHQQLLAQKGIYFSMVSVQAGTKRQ
Sequence of hERG (Q12809 whole entry): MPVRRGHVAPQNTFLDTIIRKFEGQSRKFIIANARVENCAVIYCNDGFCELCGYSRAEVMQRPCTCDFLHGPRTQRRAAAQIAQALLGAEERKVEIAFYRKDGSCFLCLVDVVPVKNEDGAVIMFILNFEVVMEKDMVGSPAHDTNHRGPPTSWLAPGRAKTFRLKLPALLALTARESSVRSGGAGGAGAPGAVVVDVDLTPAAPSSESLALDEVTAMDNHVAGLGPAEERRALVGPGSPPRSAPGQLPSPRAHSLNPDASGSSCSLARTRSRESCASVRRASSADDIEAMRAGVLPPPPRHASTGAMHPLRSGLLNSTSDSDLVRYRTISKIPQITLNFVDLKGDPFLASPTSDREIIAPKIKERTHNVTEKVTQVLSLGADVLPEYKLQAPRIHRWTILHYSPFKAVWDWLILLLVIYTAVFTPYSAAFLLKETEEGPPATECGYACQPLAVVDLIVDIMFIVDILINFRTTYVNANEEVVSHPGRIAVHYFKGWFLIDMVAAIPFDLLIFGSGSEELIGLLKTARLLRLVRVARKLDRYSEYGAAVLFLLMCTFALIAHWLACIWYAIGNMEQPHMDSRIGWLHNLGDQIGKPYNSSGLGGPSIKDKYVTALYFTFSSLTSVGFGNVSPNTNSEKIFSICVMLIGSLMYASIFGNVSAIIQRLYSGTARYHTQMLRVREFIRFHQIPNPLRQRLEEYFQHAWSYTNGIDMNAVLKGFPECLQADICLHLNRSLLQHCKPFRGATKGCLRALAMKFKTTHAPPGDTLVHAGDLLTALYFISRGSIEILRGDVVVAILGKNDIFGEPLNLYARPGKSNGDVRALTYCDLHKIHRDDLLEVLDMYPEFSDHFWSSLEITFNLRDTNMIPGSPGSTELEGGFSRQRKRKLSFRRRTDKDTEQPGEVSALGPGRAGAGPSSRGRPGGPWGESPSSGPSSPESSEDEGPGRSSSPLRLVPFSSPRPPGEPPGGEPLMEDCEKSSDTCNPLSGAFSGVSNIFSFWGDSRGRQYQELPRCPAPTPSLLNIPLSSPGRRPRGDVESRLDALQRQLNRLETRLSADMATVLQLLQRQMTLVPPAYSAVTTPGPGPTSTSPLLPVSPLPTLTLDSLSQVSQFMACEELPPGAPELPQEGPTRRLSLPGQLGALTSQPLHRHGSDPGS

## 6,6′,7,12-tetramethoxy-2,2′-dimethyl-berbaman [ES-3000]
[1]; Tetrandrine 150 mg/kg in 0.1N HCl, 1 time per day
  spleen weight: reduces spleen weight
[1]; [5]
  development of circulating leukemic cells: superior to Imatinib
  development of leukemic stem cells: superior to Imatinib
Calmodulin (CaM)
  binding to calmodulin (CaM): bind competitively to calmodulin
bcr-abl transcripts; Primary colonies
  abl only: 1
  bcr-abl only: 1
  both negative: 4
bcr-abl transcripts; Secondary colonies
  abl only: 1
  bcr-abl only: 0
  both negative: 9
hERG; subjects, interpretation of hERG IC50
  plasma levels at which QT prolongation might be expected: above 249 ng/ml
hERG; utilizing Cmax from previous human clinical experience (Oldham 1998, Oldham 2000)
  safety for cardiac conduction-related toxicity (hERG IC50 versus Cmax): 13 fold
CAMKII gamma; 30 uM inhibitor, 10 uM ATP
  mean (units): 3.09 units
  units (duplicate reactions): 2.75 units and 3.43 units
CAMKII gamma; 30 uM inhibitor, 50 uM ATP
  mean (units): 10.55 units
  units (duplicate reactions): 10.4 units and 10.7 units
CAMKII gamma; 100 uM inhibitor, 10 uM ATP
  mean (units): 2.87 units
  units (duplicate reactions): 2.5 units and 3.24 units
CAMKII gamma; 100 uM inhibitor, 50 uM ATP
  mean (units): 7.955 units
  units (duplicate reactions): 8.81 units and 7.1 units
CAMKII gamma; 250 uM inhibitor, 10 uM ATP
  mean (units): 0.41 units
  units (duplicate reactions): 0.34 units and 0.48 units
β-catenin; K562 cells treated with 20 and 40 uM
  β-catenin band: absent
β-catenin; K562 cells, 0 to 40 uM, 24 hours, western blot
  β-catenin level: lowers the β-catenin level in K562 cells in a dose dependent manner
[2]; colonies plucked from original cultures with ES-3000 @ 10 μM, 96 well plate, 14 days
  Repeating Colony Count (secondary colonies per well): 1
[2]; original cultures with ES-3000 @ 10 μM
  average CFC per well: three
P-glycoprotein (P-gp); Susa 2010
  P-gp substrate: not a substrate of P-gp
P-glycoprotein (P-gp)
  reversal of P-glycoprotein-mediated drug resistance: potent and specific activity
[3]
  IC50: 1.5 to 10.4 µM
HCT116 cells; HCT116 (He 2011)
  anticancer activity in combination with 5-FU: synergistic anticancer activity with 5-FU
HCT116 cells; HCT116 cells (He 2011)
  migration and invasion capabilities: reduced migration and invasion capabilities
[4]; 0.1 μM
  BFU-E: 22 ± 4
  CFU-E: 11 ± 1
  CFU-GM: 55 ± 5
  Total Erythroid: 33 ± 3
[4]; 1 μM
  BFU-E: 22 ± 4
  CFU-E: 10 ± 2
  CFU-GM: 54 ± 2
  Total Erythroid: 33 ± 3
[4]; 3 μM
  BFU-E: 14 ± 3
  CFU-E: 9 ± 2
  CFU-GM: 52 ± 5
  Total Erythroid: 23 ± 2
[4]; 10 μM
  CFU-GM: 26 ± 2
